This note sets out measurements from patent publication US12390472B2 (SUZHOU SINOVENT PHARMACEUTICALS CO., LTD., priority 2018, dated 2025).

Usually IC50 stands for the midpoint of a concentration-inhibition curve. One may read the AUC(0-inf) as the area under the concentration-time curve extrapolated to infinity. High values mean high exposure, low ones low exposure. The Cmax is the maximum level reached in the sampled fluid or tissue. A word on the Tmax: it is the time from dosing to the highest level. As a reminder, the half-life is the time in which the quantity being followed falls by half. A lower half-life goes with rapid decline.

One data set addresses EZH2 enzyme complex (Homo sapiens (Human), UniProt Q15910). The data set is described as follows: Test on EZH2 inhibitory activity (TR-FRET). The data set is classed as biochemical. As to conditions: EZH2 enzyme complex 25 ng/uL, histone H3 peptide 4 uM, SAM 2 uM, 300 min; read-out: IC50 of EZH2 inhibition. (In general: TR-FRET usually uses a lanthanide donor and a delayed reading to cut background.)

A short description of data set [1]: In vivo pharmacokinetic properties in mice. As to conditions: male ICR mice; for F: intragastric 250 mg/kg vs intravenous 5 mg/kg; for CL / AUC(0-inf) / Cmax / Tmax / half-life: single intravenous 5 mg/kg and intragastric 250 mg/kg study; for AUC(0-inf) / Cmax / Tmax / half-life: mouse, plasma; for AUC(0-inf) / Cmax / Tmax: oral; for Cmax: read-out: Cmax; for Tmax: read-out: Tmax. Also noted: species or system mouse. On the procedure: Male ICR mice were divided into different groups with 3 mice in each group, and single intravenous injection and single intragastric administration were conducted respectively. The compounds were formulated with 10% DMSO/90% (20% Captisol) to reach an appropriate concentration and then administered intravenously at 5 mg/kg. The compounds were formulated with 0.5% CMC-Na/0.1% Tween 80 (pH=3-4) to reach an appropriate concentration and then administered intragastrically at 250 mg/kg. Blood was taken at 5 min, 15 min, 30 min, 1 h, 2 h, 4 h, 6 h, 8 h and 24 h after administration, and then subjected to EDTA-K2 anticoagulation. The concentration of the compound in the plasma was quantitatively detected by an LC-MS/MS method.

Chain of EZH2 enzyme complex (Q15910 whole entry): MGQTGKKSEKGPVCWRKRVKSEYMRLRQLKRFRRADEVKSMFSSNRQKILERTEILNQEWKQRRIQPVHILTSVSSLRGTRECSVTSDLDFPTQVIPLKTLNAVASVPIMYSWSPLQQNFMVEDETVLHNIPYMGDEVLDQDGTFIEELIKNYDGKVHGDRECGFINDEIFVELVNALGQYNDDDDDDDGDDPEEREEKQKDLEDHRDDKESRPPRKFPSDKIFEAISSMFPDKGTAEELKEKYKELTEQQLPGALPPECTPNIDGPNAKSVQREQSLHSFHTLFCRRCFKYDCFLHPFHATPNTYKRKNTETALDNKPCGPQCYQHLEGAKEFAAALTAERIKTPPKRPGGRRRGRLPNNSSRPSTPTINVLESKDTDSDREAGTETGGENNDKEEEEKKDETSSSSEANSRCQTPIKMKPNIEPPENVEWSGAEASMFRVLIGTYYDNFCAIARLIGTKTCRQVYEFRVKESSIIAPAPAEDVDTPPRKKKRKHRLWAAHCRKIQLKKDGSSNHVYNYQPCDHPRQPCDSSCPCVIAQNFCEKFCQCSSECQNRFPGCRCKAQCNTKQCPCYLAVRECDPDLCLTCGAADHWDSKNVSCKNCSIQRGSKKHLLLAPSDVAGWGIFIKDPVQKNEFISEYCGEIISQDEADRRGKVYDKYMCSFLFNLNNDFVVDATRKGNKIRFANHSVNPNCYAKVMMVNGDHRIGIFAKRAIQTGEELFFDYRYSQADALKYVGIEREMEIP
Chain of EZH2 enzyme complex (O75530 whole entry partner): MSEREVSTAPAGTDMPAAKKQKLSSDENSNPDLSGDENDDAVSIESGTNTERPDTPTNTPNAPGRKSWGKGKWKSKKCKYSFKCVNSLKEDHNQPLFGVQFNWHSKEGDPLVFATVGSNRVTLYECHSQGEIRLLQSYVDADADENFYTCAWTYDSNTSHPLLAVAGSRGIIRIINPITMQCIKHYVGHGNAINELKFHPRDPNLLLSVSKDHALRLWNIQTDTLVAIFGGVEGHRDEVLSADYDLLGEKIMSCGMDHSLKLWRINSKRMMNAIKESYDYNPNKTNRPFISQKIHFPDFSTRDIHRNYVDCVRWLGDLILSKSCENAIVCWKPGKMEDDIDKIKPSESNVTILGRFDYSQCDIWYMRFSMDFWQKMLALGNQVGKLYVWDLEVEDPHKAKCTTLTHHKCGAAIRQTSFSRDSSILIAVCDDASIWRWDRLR
Chain of EZH2 enzyme complex (Q15022 whole entry partner): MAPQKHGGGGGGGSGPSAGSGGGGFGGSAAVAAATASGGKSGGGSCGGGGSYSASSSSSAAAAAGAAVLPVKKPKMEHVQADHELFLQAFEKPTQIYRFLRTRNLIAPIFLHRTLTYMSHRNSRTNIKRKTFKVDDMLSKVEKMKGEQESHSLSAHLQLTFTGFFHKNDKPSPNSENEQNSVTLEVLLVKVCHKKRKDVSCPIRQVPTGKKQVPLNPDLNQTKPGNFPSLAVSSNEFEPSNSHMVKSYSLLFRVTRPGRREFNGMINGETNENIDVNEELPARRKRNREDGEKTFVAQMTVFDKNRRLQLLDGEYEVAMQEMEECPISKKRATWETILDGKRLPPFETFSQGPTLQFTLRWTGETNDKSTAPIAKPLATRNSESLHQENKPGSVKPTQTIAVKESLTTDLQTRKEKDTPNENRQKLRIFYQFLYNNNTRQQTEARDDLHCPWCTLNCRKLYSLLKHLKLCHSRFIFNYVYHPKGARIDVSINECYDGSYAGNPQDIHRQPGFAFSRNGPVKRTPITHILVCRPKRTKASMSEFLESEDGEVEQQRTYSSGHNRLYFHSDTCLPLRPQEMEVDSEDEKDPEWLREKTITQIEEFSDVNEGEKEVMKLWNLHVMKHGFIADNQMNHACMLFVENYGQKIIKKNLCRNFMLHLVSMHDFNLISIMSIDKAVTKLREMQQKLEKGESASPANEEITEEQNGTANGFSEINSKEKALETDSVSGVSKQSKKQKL
Method for EZH2 enzyme complex: • EZH2 enzyme complex: 25 ng/uL • Histone H3 peptide substrate: 4 uM • SAM: 2 uM • Reaction time: 300 min Procedures • 1. Each compound disclosed herein was diluted with 1×HMT buffer and transferred to a 384-well assay plate at 3 uL per well; • 2. The EZH2 enzyme solution was prepared with 1×HMT buffer and transferred to the 384-well assay plate at 2 uL per well; • 3. The above assay plate was incubated for 30 min; • 4. A mixture solution of SAM and histone H3 peptide substrate at 2-fold concentration was prepared with 4×HMT buffer; • 5. 5 uL of the mixture solution of SAM and substrate was added to each well of the assay plate to react at room temperature, and the assay plate was sealed with plastic; • 6. After incubation for 5 h, 10 uL of TR-FRET detection buffer containing Tb-labeled antibody and dye-labeled receptor was added to each well of the assay plate; • 7. After incubation for 1 h at room temperature, the assay plate was detected; • 8.

As to `CCN(c1cc(O[C@H]2C[C@@H](N3CCOCC3)C2)cc(C(=O)NCc2c(C)cc(C)[nH]c2=O)c1Cl)C1CCOCC1` [Example 40, 2-chloro-N-((4,6-dimethyl-2-oxo-1,2-dihydropyridin-3-yl)methyl)-3-(ethyl(tetrahydro-2H-pyran-4-yl)amino)-5-(cis-3-morpholinylcyclobutoxy)benzamide], the IC50 at EZH2 enzyme complex fell in the range of 10 to 100 nM.
In the case of `CCN(c1cc(O[C@H]2C[C@H](N3CCC(C)CC3)C2)cc(C(=O)NCc2c(C)cc(C(F)(F)F)[nH]c2=O)c1Cl)C1CCOCC1` [Example 90], at EZH2 enzyme complex, the concentration for half-maximal inhibition (IC50) was more than 1000 nM.
`CCN(c1cc(O[C@H]2C[C@H](N3CCCCC3)C2)cc(C(=O)NCc2c(C)cc(C)[nH]c2=O)c1Cl)C1CCOCC1` [Example 66, 2-chloro-N-((4,6-dimethyl-2-oxo-1,2-dihydropyridin-3-yl)methyl)-3-(ethyl(tetrahydro-2H-pyran-4-yl)amino)-5-(trans-3-(piperidin-1-yl)cyclobutoxy)benzamide]: in data set [1], the F is 38.3%, the CL came out at 53.5 ± 13.44 mL/min/lg, the total exposure AUC(0-inf) was determined as 31200 ng·h/mL and the Cmax was found to be 16700 ± 4970 ng/mL. In data set [1], the time of peak concentration (Tmax) is 0.42 ± 0.14 h and the half-life is 5.05 ± 0.75 h.
As to `CCN(c1cc(O[C@H]2C[C@H](N3C[C@@H](C)O[C@@H](C)C3)C2)cc(C(=O)NCc2c(C)cc(C)[nH]c2=O)c1C)C1CCOCC1` [Example 44, N-((4,6-dimethyl-2-oxo-1,2-dihydropyridin-3-yl)methyl)-5-(trans-3-(cis-2,6-dimethylmorpholinyl)cyclobutoxy)-3-(ethyl(tetrahydro-2H-pyran-4-yl)amino)-2-methylbenzamide], the IC50 at EZH2 enzyme complex fell in the range of 10 to 100 nM.
As for `CCN(c1cc(O[C@H]2C[C@H](N3CCC(C)CC3)C2)cc(C(=O)NCc2c(OC)cc(C)[nH]c2=O)c1Cl)C1CCOCC1` [Example 89], the IC50 on EZH2 enzyme complex was in the range of 10 to 100 nM.
For the compound `CCN(c1cc(O[C@H]2C[C@H](N3CCOCC3)C2)cc(C(=O)NCc2c(C)cc(C)[nH]c2=O)c1Cl)C1CCOCC1` [Example 41, 2-chloro-N-((4,6-dimethyl-2-oxo-1,2-dihydropyridin-3-yl)methyl)-3-(ethyl(tetrahydro-2H-pyran-4-yl)amino)-5-(trans-3-morpholinylcyclobutoxy)benzamide], the half-maximal inhibitory concentration (IC50) on EZH2 enzyme complex is 10 to 100 nM.
Take `CCN(c1cc(O[C@H]2C[C@H](N3CCOCC3)C2)cc(C(=O)NCc2c(C)cc(C)[nH]c2=O)c1C)C1CC2CCC(C1)O2` (stereo partly drawn) [Example 86]: in data set [1], the F is on record as 29.5%, the CL is 65.5 ± 1.60 mL/min/lg, the AUC(0-inf) is 18800 ± 4560 ng·h/mL and the maximum concentration (Cmax) stood at 21000 ± 8040 ng/mL. Besides, in data set [1], the time of peak concentration (Tmax) stood at 0.25 h and the half-life is 4.19 ± 3.07 h.
On to `Cc1cc(C)c(CNC(=O)c2cc(OC3CCC3)cc(OC3CCOCC3)c2C)c(=O)[nH]1` [Example 5, 5-cyclobutoxy-N-((4,6-dimethyl-2-oxo-1,2-dihydropyridin-3-yl)methyl)-2-methyl-3-((tetrahydro-2H-pyran-4-yl)oxy)benzamide], for which the IC50 at EZH2 enzyme complex lay in the range of 100 to 1000 nM.
With `CCN(c1cc(O[C@H]2C[C@H](N3CCOCC3)C2)cc(C(=O)NCc2c(C)cc(C)[nH]c2=O)c1C)C1CCOC1` (stereo partly drawn) [Example 64, N-((4,6-dimethyl-2-oxo-1,2-dihydropyridin-3-yl)methyl)-3-(ethyl(tetrahydrofuran-3-yl)amino)-2-methyl-5-(trans-3-morpholin-4-ylcyclobutoxy)benzamide], on EZH2 enzyme complex, the IC50 lay in the range of 10 to 100 nM.
`CCN(c1cc(O[C@H]2C[C@H](N3CCNCC3)C2)cc(C(=O)NCc2c(C)cc(C)[nH]c2=O)c1Cl)C1CCOCC1` [Example 43, 2-chloro-N-((4,6-dimethyl-2-oxo-1,2-dihydropyridin-3-yl)methyl)-3-(ethyl(tetrahydro-2H-pyran-4-yl)amino)-5-(trans-3-(piperazin-1-yl)cyclobutoxy)benzamide]: the concentration for half-maximal inhibition (IC50) on EZH2 enzyme complex was 10 to 100 nM.
Take `CCN(c1cc(O[C@H]2C[C@H](N3C[C@@H](C)O[C@@H](C)C3)C2)cc(C(=O)NCc2c(C)cc(C)[nH]c2=O)c1C)C1CCN(CC(F)(F)F)CC1` [Example 50, N-((4,6-dimethyl-2-oxo-1,2-dihydropyridin-3-yl)methyl)-5-(trans-3-(cis-2,6-dimethylmorpholinyl)cyclobutoxy)-3-(ethyl (1-(2,2,2-trifluoroethyl)piperidin-4-yl)amino)-2-methylbenzamide]: the 50% inhibitory concentration (IC50) at EZH2 enzyme complex was 10 to 100 nM.
Take `CCN(c1cc(O[C@H]2C[C@H](CN3CCOCC3)C2)cc(C(=O)NCc2c(C)cc(C)[nH]c2=O)c1C)[C@H]1CC[C@H](N(C)CCOC)CC1` [Example 32, N-((4,6-dimethyl-2-oxo-1,2-dihydropyridin-3-yl)methyl)-3-(ethyl(trans-4-((2-methoxyethyl)(methyl)amino)cyclohexyl)amino)-2-methyl-5-(trans-3-(morpholinylmethyl)cyclobutoxy)benzamide]: the IC50 at EZH2 enzyme complex is 10 to 100 nM.
On to `CCN(c1cc(O[C@H]2C[C@H](CN3CCOCC3)C2)cc(C(=O)NCc2c(C)cc(C)[nH]c2=O)c1F)C1CCOCC1` [Example 61, N-((4,6-dimethyl-2-oxo-1,2-dihydropyridin-3-yl)methyl)-3-(ethyl(tetrahydro-2H-pyran-4-yl)amino)-2-fluoro-5-(trans-3-(morpholinomethyl)cyclobutoxy)benzamide], for which the IC50 at EZH2 enzyme complex was more than 1000 nM.
On to `CCN(c1cc(C2CC2CN2CCOCC2)cc(C(=O)NCc2c(C)cc(C)[nH]c2=O)c1Cl)C1CCOCC1` (stereo not drawn) [Example 84, 2-chloro-N-((4,6-dimethyl-2-oxo-1,2-dihydropyridin-3-yl)methyl)-3-(ethyl(tetrahydro-2H-pyran-4-yl)amino)-5-(2-(morpholinylmethyl)cyclopropyl)benzamide], for which the IC50 on EZH2 enzyme complex was 100 to 1000 nM.
`CCN(c1cc(O[C@H]2C[C@H](N3CC4CC(C3)O4)C2)cc(C(=O)NCc2c(C)cc(C)[nH]c2=O)c1C)C1CCOCC1` [Example 54, 5-(trans-3-(6-oxa-3-azabicyclo[3.1.1]heptan-3-yl)cyclobutoxy)-N-((4,6-dimethyl-2-oxo-1,2-dihydropyridin-3-yl)methyl)-3-(ethyl(tetrahydro-2H-pyran-4-yl)amino)-2-methylbenzamide]: the IC50 on EZH2 enzyme complex lay in the range of 10 to 100 nM.
In the case of `CCN(c1cc(O[C@H]2C[C@@H](N3CCNCC3)C2)cc(C(=O)NCc2c(C)cc(C)[nH]c2=O)c1Cl)C1CCOCC1` [Example 42, 2-chloro-N-((4,6-dimethyl-2-oxo-1,2-dihydropyridin-3-yl)methyl)-3-(ethyl(tetrahydro-2H-pyran-4-yl)amino)-5-(cis-3-(piperazin-1-yl)cyclobutoxy)benzamide], the concentration for half-maximal inhibition (IC50) at EZH2 enzyme complex was 10 to 100 nM.
Regarding `CCN(c1cc(C2CC2CN2CCN(C)CC2)cc(C(=O)NCc2c(C)cc(C)[nH]c2=O)c1C)[C@H]1CC[C@H](N(C)CCOC)CC1` (stereo partly drawn) [Example 81, N-((4,6-dimethyl-2-oxo-1,2-dihydropyridin-3-yl)methyl)-3-(ethyl(trans-4-((2-methoxyethyl)(methyl)amino)cyclohexyl)amino)-2-methyl-5-(2-((4-methylpiperazin-1-yl)methyl)cyclopropyl)benzamide], the IC50 on EZH2 enzyme complex was 10 to 100 nM.
